Data set [1] relates to livers of male Wistar rats fed the CDAA diet. In words: Example 2: oxidative hepatocyte injuries (8-OHdG, TBARS). Format: in vivo, rat. The text has this:
(§1) Animal experiment. After acclimation, rats were divided equally into 22 groups consisting of 5 animals each. Animals in group 1 received the CDAA diet alone. […] Groups 5-7, 8-10, 11-13 and 14-16 received the CDAA diet containing the low, middle, and high doses of 4-OHPBN, 3-OHPBN, 2-OHPBN and 2-SPBN, respectively. Group 17 received the CSAA diet alone. […] All animals were sacrificed by exsanguination under light ether anesthesia 16 weeks after commencement, and the livers excised. Slices 5-mm-thick were taken from the left lateral, median and right lateral lobes of the livers, fixed in 10% neutrally-buffered formalin for 24 hours and then embedded in paraffin. Five serial 4-μm-thick sections were prepared from each fixed liver slice and used for histological and immunohistochemical assessment as described below. The remaining portions of the livers were immediately frozen under liquid nitrogen and stored at −80° C. until use.
Determination of oxidative hepatocyte injuries. Levels of oxidative damage to the hepatocytes were determined on frozen liver samples. Oxidative damage to nuclear DNA was assessed as previously described, using the amount of 8-hydroxydeoxyguanosine (8-OHdG) to 10^6 deoxyguanosine (dG) ratio as a parameter (Nakae et al. 1995). Oxidative injury to extra-nuclear components was assessed as described elsewhere, by determining picomole malondialdehyde equivalent (MDA eq.) levels of 2-thiobarbituric acid-reacting substances (TBARS) per milligram protein (Nakae et al. 1990).
(§2) Statistics. Inter-group differences in quantitative data for multiple groups were recognized to be significant, when p values smaller than 0.05 were obtained by the Dunnett multiple comparison test employed after one-way analysis of variance to determine the variation among the group means followed by the Bartlett's test to determine the homogeniety of variance.

For data set [2], the system named is GST-P-positive lesions in livers of male Wistar rats fed the CDAA diet. Nature of the data set: Example 2: numbers and sizes of GST-P-positive liver lesions, CDAA diet for 16 weeks. Format: in vivo, rat. Conditions: high dose 0.090% in CDAA diet. As for the experimental part:
Animals. A total of 110 male Wistar rats were obtained at 5 weeks of age from Charles River Japan, Inc., Atsugi, Kanagawa, Japan. Experimentation began after a 1-week acclimation on a basal diet (CE-2 diet, Clea Japan, Meguro, Tokyo, Japan). Rats were housed 5 each in plastic cages with white flake bedding (Kansai Animal Corp., City of Kyoto, Kyoto, Japan) in a standard atmosphere (temperature, 25±3° C.; relative humidity, 55±8%; ventilation, 10-15/hour; and a 12-hour dark/light cycle). Free access to food and tap water was allowed throughout the acclimation and experimental periods.
Diets and chemicals. The CDAA diet and its control, a choline-supplemented, L-amino acid-defined (CSAA) diet (Nakae et al. 1992; and Nakae et al. 1990) were obtained from Dyets, Inc., Bethlehem, Pa. […] 2-Sulfoxy-PBN (2-SPBN) was purchased from Aldrich Chemical Co. (Milwaukee, Wis.).
as §1
(§3) Histological and immunohistochemical assessments. Histological assessment was performed using sections routinely stained with hematoxylin/eosin and Masson's trichrome procedures. Gradation of fibrosis was quantitatively evaluated in groups 1, 4, 7, 10, 13, 16 and 17 by calculating the percent area occupied by collagen fiber stained blue by Masson's trichrome method using an IPAP image analyzing system (Sumika Technoservice Corp., City of Osaka, Osaka, Japan). GST-P-positive lesions were visualized immunohistochemically. Lesions consisting of more than 6 cells were quantified using the IPAP system as described elsewhere (Kishida et al. 2000). The amount of apoptosis and the cellular proliferative activity were determined in groups 1, 4, 7, 10, 13, 16 and 17, using the double staining techniques by combination of the GST-P immunohistochemistry as above with the in situ terminal deoxynucleotidyl transferase-mediated dUTP-biotin nick end-labeling method (Gold et al. 1994) and the enhanced polymer one-step staining method for proliferating cell nuclear antigen (Tsutsumi et al. 1995), respectively. Numbers of apoptotic and proliferating hepatocytes among the 1000-5000 hepatocytes in GST-P-positive lesions and 5000 hepatocytes in surrounding tissue were counted under light microscopy to obtain percentages that are hereafter referred as apoptotic and proliferative indices, respectively.
as §2

A further data set concerns rats fed the CDAA diet. The conditions noted are these: cited from earlier work; for size of neoplastic nodules: 12 weeks, CDAA only 1.92; for nodule number: CDAA only 190.
The test system of data set [3] is rat liver microsome peroxidation. The conditions noted are these: read-out: IC50, inhibition of rat liver microsome peroxidation; cited from earlier work. In general terms: Liver microsomes are a subcellular fraction often used to study metabolism.
The test system of data set [4] is livers of male Wistar rats fed the CDAA diet. In words: Example 2: histological liver injury (fibrosis, fatty liver). Format: in vivo, rat. Conditions: high dose 0.090%, CDAA diet 16 weeks.
From the text: as §1, §3, §2

For data set [5] the following is noted: cited from earlier work.

The structures appear in SMILES notation. Where two headings read alike, the source gives them in different places.

What is called IC50 is the concentration needed to halve the response being measured.

On to `CC(C)(C)[N+]([O-])=Cc1ccccc1` [PBN, phenyl N-tert-butyl nitrone], for which the “nuclear DNA 8-OHdG content increased by CDAA diet feeding” value in data set [1] (all doses, CDAA diet 16 weeks) is “significantly inhibited”. The “TBARS level enhanced by CDAA feeding” value in data set [1] (high dose 0.090% only) is listed as “significantly inhibited”. The “number of GST-P-positive lesions, % of the group 1 value” in data set [2] was 52%. Besides, the “sizes of GST-P-positive lesions, % of the group 1 value” in data set [2] was 19%. Besides, the “size of neoplastic nodules” value in the data set on rats fed the CDAA diet (CDAA plus PBN 6 mg/kg-day) is 0.33 mm^3; in the data set on rats fed the CDAA diet (CDAA plus PBN 30 mg/kg-day) it was 0.17 mm^3; in the data set with rats fed the CDAA diet (CDAA plus PBN 60 mg/kg-day), 0.10 mm^3. In addition, the nodule number in the data set on rats fed the CDAA diet (PBN 6 mg/kg-day) is reported as 170 per mm^3; in the data set on rats fed the CDAA diet (PBN 30 mg/kg-day), 149 per mm^3; in the data set with rats fed the CDAA diet (PBN 60 mg/kg-day) it was 142 per mm^3. Also, in the data set on rats fed the CDAA diet (highest dose), the “reduction of the amount of PGE2 in the CD-livers” value was “about 50%”. For the same compound, the “decrease of nodule size” value is 95% in the data set on rats fed the CDAA diet (highest level of PBN) and 83% in the data set with rats fed the CDAA diet (lowest level of PBN (6 mg/kg)). Moreover, the “8-OHdG content (marker of DNA oxidation) in the CD-livers” value in the data set with rats fed the CDAA diet (increasing concentrations of PBN) is “reduced”. In the data set on rats fed the CDAA diet (lowest level of PBN), the “decrease of nodule number” value is reported as 11%. Also, in the data set on rats fed the CDAA diet (mRNA or protein level), the “effect on COX-II expression” value is recorded as “no effect”. Further, the connective tissue proliferation result in the data set on rats fed the CDAA diet (rat, in vivo) is recorded as “significantly reduced”. In addition, the IC50 in data set [3] is 5 mM. Besides, the “grade of fibrosis versus group 1” value in data set [4] was “significantly lower”. For the same compound, the half-life entry in data set [5] (in rats) is listed as “about 132 minutes”. In data set [5] (rat, in vivo), the tissue distribution entry is “readily and rapidly distributed almost equally to all tissues”.

Source of the values: patent publication US6569902B2, “Nitrone inhibition of cancer development” (Oklahoma Medical Research Foundation, priority 2000, dated 2003).
